Source: patent US20230219979A1, “PYRAZOLO[1,5-a]PYRIDINE COMPOUND, PREPARATION METHOD THEREFOR AND USE THEREOF” (SHENZHEN ZHONGGE BIOLOGICAL TECHNOLOGY CO., LTD., priority 2019, published 2023)
Where two headings read alike, the source gives them in different places.

Key:
Wild-type RET kinase = Wild-type RET kinase (Homo sapiens, UniProt P07949); assay: HTRF method for testing the inhibitory activity of compounds against RET; type: biochemical
Ba/F3-KIF5B-RET cell = target: T1, Ba/F3-KIF5B-RET cell (Homo sapiens, UniProt P07949); assay: CellTiter-Glo luminescence assay, inhibitory activity against Ba/F3-KIF5B-RET cell; type: cell-based
T1 construct: fused on or other part: P33176 (Kinesin-1 heavy chain)
From the text: (C) In Vitro Screening Experiment - CellTiter-Glo Luminescence Assay for Testing The inhibitory activity of compounds against Ba/F3-KIF5B-RET cell
• 1. The mammalian cell expression vector containing human KIF5B-RET cDNA was introduced into Ba/F3 cells using the Neon® transfection system method, and the surviving clones screened by puromycin were subjected to cell growth inhibitory function experiments and Western blotting to verify cell lines with stable and high expression of RET. • 2. Cells were cultured in RPMI 1640 medium containing 10% fetal bovine serum, 1% penicillin-streptomycin, and 2 µg/mL puromycin, and then placed in a 37° C., 5% carbon dioxide cell incubator. • 3. The test compound (5 mM stock) was diluted 2.5 folds to […] with 100% dimethyl sulfoxide; and the compound was diluted into 10 concentrations at an equal ratio of 1:3 in a 384-well dilution plate. • 4. 0.2 µL of the serially diluted compound was added to a 384-well cell culture plate (Corning, 3570) using an Echo 550 pipetting system, 2 replicate wells for each concentration, and the final concentration of dimethyl sulfoxide was 0.5% (v/v). The gradient concentrations of the test compound were 5000, 1666.7, 555.5, 185.18, 61.72, 20.57, 6.858, 2.286, 0.764, 0.254 nM. • 5. 40 µL of Ba/F3-KIF5B-RET cell suspension containing 800 cells was added to each well, and incubated for 72 h in a 5% CO2 cell incubator. • 6. 20 µL of Cell Titer-Glo reagent was added to each well of the cell culture plate, and the culture system was then shaken and mixed thoroughly for 2 min to lyse the cells, the cells were then incubated at room temperature for 30 min, and the […] signal values were then read with an Envision 2104 microplate reader. • 7. By fitting the data with XLFit 5.0 based on the parameters formula, the IC50 value was calculated as: • [formula]

[1] = HTRF, read-out: Wild-type RET kinase
[2] = 72 h, read-out: Ba/F3-KIF5B-RET cell activity
[3] = read-out: Ba/F3-KIF5B-RET cell activity, 72 h

Sequence of Wild-type RET kinase (P07949 29-1114): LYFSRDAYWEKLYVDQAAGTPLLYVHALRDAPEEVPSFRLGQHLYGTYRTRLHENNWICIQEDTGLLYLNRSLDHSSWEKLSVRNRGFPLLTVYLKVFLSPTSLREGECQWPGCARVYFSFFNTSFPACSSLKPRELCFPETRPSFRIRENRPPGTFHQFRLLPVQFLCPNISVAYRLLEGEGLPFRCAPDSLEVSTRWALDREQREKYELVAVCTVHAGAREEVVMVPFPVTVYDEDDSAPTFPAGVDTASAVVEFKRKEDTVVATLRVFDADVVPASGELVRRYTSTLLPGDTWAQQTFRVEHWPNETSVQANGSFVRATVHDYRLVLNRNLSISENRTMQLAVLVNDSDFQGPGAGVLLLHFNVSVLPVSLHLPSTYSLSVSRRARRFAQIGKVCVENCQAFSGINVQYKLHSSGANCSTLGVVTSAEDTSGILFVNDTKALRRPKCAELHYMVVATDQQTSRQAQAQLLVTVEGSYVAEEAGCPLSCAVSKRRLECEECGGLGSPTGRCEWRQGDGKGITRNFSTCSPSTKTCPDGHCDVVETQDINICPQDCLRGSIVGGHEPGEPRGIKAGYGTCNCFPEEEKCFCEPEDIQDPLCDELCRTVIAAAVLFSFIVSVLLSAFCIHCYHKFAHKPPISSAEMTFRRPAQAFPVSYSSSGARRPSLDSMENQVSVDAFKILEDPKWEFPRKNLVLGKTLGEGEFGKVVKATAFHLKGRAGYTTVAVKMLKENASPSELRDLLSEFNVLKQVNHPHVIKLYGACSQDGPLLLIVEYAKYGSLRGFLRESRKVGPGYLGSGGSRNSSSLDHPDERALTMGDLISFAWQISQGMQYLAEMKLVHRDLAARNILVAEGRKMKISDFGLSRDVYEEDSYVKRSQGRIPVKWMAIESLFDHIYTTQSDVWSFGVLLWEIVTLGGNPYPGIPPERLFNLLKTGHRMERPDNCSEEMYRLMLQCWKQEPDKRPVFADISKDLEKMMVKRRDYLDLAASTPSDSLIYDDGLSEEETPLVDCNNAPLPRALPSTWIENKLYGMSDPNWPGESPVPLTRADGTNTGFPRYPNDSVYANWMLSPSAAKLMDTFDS
T1 sequence (P07949 whole entry, stated change not applied, the tested form may be a part): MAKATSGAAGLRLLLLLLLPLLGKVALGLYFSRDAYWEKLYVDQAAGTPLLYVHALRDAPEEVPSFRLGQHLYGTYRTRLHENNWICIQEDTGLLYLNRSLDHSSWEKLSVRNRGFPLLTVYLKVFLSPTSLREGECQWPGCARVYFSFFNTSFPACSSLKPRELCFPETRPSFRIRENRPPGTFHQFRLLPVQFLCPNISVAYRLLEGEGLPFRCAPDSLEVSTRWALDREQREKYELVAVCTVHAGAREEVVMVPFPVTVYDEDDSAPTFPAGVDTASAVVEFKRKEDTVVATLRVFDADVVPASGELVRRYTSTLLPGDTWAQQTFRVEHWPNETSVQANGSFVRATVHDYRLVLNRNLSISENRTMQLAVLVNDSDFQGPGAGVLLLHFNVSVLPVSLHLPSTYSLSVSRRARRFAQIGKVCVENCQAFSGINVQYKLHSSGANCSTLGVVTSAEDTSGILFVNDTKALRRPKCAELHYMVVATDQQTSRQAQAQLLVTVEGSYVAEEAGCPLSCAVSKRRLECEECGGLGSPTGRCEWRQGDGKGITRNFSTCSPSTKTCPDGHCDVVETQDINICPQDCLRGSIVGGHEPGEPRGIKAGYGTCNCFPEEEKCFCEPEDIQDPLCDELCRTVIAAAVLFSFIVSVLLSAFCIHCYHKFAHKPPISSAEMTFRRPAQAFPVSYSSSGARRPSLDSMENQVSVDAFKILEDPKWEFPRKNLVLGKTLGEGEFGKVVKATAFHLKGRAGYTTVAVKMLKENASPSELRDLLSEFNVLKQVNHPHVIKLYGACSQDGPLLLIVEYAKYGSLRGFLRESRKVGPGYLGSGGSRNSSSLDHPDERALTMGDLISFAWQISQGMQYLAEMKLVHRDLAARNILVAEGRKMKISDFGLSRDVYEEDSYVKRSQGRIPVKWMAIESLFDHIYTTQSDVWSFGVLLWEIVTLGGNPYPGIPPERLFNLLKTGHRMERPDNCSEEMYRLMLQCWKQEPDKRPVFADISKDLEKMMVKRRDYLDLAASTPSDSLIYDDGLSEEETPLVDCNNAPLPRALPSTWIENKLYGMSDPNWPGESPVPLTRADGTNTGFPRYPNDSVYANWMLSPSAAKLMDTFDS

IC50 (Wild-type RET kinase; [1]) [nM]	GI50 (Ba/F3-KIF5B-RET cell; [2]) [nM]	Compound	IC50 (Wild-type RET kinase) [nM]	GI50 (Ba/F3-KIF5B-RET cell; [3]) [nM]
1.24	151	COc1ccc(CN2C3CC2CN(c2cnc(-c4cc(OCCN5CC6CC(C5)N6)cn5ncc(C#N)c45)cn2)C3)cn1 [Compound 22, 6-(2-(3,6-diazabicyclo[3.1.1]heptan-3-yl)ethoxy)-4-(5-(6-((6-methoxypyridine-3-yl)methyl)-3,6-diazabicyclo[3.1.1]heptan-3-yl)pyrazin-2-yl)pyrazolo[1,5-a]pyridine-3-carbonitrile]		
1.35	1130	COc1ccc(CN2C3CC2CN(c2cnc(-c4cc(OCCN5CCCC56CNC6)cn5ncc(C#N)c45)cn2)C3)cn1 [Compound 23, 6-(2-(2,5-diazaspiro[3.4]octan-5-yl)ethoxy)-4-(5-(6-((6-methoxypyridin-3-yl)methyl)-3,6-diazabicyclo[3.1.1]heptan-3-yl)pyrazin-2-yl)pyrazolo[1,5-a]pyridine-3-carbonitrile]		
2.19	21.3	COc1ccc(CN2C3CC2CN(c2cnc(-c4cc(OCCN5CCC6(CCCCC6)CC5)cn5ncc(C#N)c45)cn2)C3)cn1 [Compound 24, 6-(2-(3-azaspiro[5.5]undecane-3-yl)ethoxy)-4-(5-(6-((6-methoxypyridin-3-yl)methyl)-3,6diazabicyclo[3.1.1]heptan-3-yl)pyrazin-2-yl)pyrazolo[1,5-a]pyridine-3-carbonitrile]		
2.89	27.7	COc1ccc(CN2C3CC2CN(c2cnc(-c4cc(OCCN5CCC6(CCCO6)CC5)cn5ncc(C#N)c45)cn2)C3)cn1 [Compound 25, 6-(2-(1-oxa-8-azaspiro[4.5]dec-8-yl)ethoxy)-4-(5-(6-((6-methoxypyridin-3-yl)methyl)-3,6-diazabicyclo[3.1.1]heptan-3-yl)pyrazin-2-yl)pyrazolo[1,5-a]pyridine-3-carbonitrile]		
		COc1ccc(CN2C3CC2CN(c2cnc(-c4cc(OC(=O)N5CCN(C)CC5)cn5ncc(C#N)c45)cn2)C3)cn1 [Compound 26, 3-cyano-4-(5-(6-((6-methoxypyridin-3-yl)methyl)-3,6-diazabicyclo[3.1.1]heptan-3-yl)pyrazin)pyrazolo[1,5-a]pyridin-6-yl 4-methylpiperazine-1-carboxylate]	12.7	64.2
		COc1ccc(CN2C3CC2CN(c2cnc(-c4cc(OC(=O)N5CCOCC5)cn5ncc(C#N)c45)cn2)C3)cn1 [Compound 27, 3-cyano-4-(5-(6-((6-methoxypyridin-3-yl)methyl)-3,6-diazabicyclo[3.1.1]heptan-3-yl)pyrazin-2-yl]pyrazolo[1,5-a]pyridin-6-ylmorpholine-4-carboxylate]	15.7	51.7
1.3	12.6	COc1ccc(CN2C3CC2CN(c2cnc(-c4cc(NCc5ccccn5)cn5ncc(C#N)c45)cn2)C3)cn1 [Compound 28, 4-(5-(6-((6-methoxypyridin-3-yl)methyl)-3,6-diazabicyclo[3.1.1]heptan-3-yl)pyrazin-2-yl)-6-((pyridin-2-ylmethyl)amino)pyrazolo[1,5-a]pyridine-3-carbonitrile]		
3.98	63.4	COc1ccc(CN2C3CC2CN(c2cnc(-c4cc(OCCN5CCC6(CC5)COC6)cn5ncc(C#N)c45)cn2)C3)cn1 [Compound 30, 6-(2-(2-oxa-7-azaspiro[3.5]non-7-yl)ethoxy)-4-(5-(6-((6-methoxypyridin-3-yl)methyl)-3,6-diazabicyclo[3.1.1]heptan-3-yl)pyrazin-2-yl)pyrazolo[1,5-a]pyridine-3-carbonitrile]		
1.4	5.1	COc1ccc(CN2C3CC2CN(c2cnc(-c4cc(OCCN5C6CCC5COC6)cn5ncc(C#N)c45)cn2)C3)cn1 [Compound 31, 6-(2-(3-oxa-8-azabicyclo[3.2.1]oct-8-yl)ethoxy)-4-(5-(6-((6-methoxypyridine-3-yl)methyl)-3,6diazabicyclo[3.1.1]heptan-3-yl)pyrazin-2-yl)pyrazolo[1,5-a]pyridine-3-carbonitrile]		
